# Source: ChEMBL document CHEMBL4610129, “Discovery of Novel Selective and Orally Bioavailable Phosphodiesterase-1 Inhibitors for the Efficient Treatment of Idiopathic Pulmonary Fibrosis” (J Med Chem, 2020)
# Activity calls are given as the source filed them. No cut-off for these calls is given here.
# Legend:
# [1] = Half life in rat liver microsomes; assay type: ADME, Microsome
# [2] = biological target: cGMP-dependent 3',5'-cyclic phosphodiesterase (Homo sapiens, UniProt O00408); assay: Inhibition of PDE2A (580 to 919 residues) (unknown origin) using [3H]-cGMP substrate incubated for 15 mins by liquid scintillation counting method relative to control
# [3] = biological target: cGMP-inhibited 3',5'-cyclic phosphodiesterase 3A (Homo sapiens, UniProt Q14432); assay: Inhibition of PDE3A (679 to 1087 residues) (unknown origin) using [3H]-cAMP substrate incubated for 15 mins by liquid scintillation counting method relative to control
# [4] = biological target: cGMP-specific 3',5'-cyclic phosphodiesterase (Homo sapiens, UniProt O76074); assay: Inhibition of PDE5A1 (535 to 860 residues) (unknown origin) using [3H]-cGMP substrate incubated for 15 mins by liquid scintillation counting method relative to control
# [5] = biological target: Cone cGMP-specific 3',5'-cyclic phosphodiesterase subunit alpha' (Homo sapiens, UniProt P51160); assay: Inhibition of PDE6C (1 to 858 residues) (unknown origin) using [3H]-cGMP substrate incubated for 15 mins by liquid scintillation counting method relative to control
# [6] = biological target: High affinity 3',5'-cyclic-AMP phosphodiesterase 7A (Homo sapiens, UniProt Q13946); assay: Inhibition of PDE7A1 (130 to 482 residues) (unknown origin) using [3H]-cAMP substrate incubated for 15 mins by liquid scintillation counting method relative to control
# [7] = biological target: High affinity cAMP-specific and IBMX-insensitive 3',5'-cyclic phosphodiesterase 8A (Homo sapiens, UniProt O60658); assay: Inhibition of PDE8A1 (480 to 820 residues) (unknown origin) using [3H]-cAMP substrate incubated for 15 mins by liquid scintillation counting method relative to control
# [8] = biological target: High affinity cGMP-specific 3',5'-cyclic phosphodiesterase 9A (Homo sapiens, UniProt O76083); assay: Inhibition of PDE9A2 (181 to 506 residues) (unknown origin) using [3H]-cGMP substrate incubated for 15 mins by liquid scintillation counting method relative to control
# [9] = biological target: cAMP and cAMP-inhibited cGMP 3',5'-cyclic phosphodiesterase 10A (Homo sapiens, UniProt Q9Y233); assay: Inhibition of PDE10A (449 to 770 residues) (unknown origin) using [3H]-cAMP substrate incubated for 15 mins by liquid scintillation counting method relative to control
# [10] = Half life in Sprague-Dawley rat at 2.5 mg/kg, iv; assay type: ADME, organism-based; details: in vivo
# [11] = Half life in Sprague-Dawley rat at 5 mg/kg, po; assay type: ADME, organism-based; details: in vivo
# [12] = Tmax in Sprague-Dawley rat at 5 mg/kg, po; assay type: ADME, organism-based; details: in vivo
# [13] = AUC (0 to t) in Sprague-Dawley rat at 2.5 mg/kg, iv; assay type: ADME, organism-based; details: in vivo
# [14] = AUC (0 to t) in Sprague-Dawley rat at 5 mg/kg, po; assay type: ADME, organism-based; details: in vivo
# [15] = AUC (0 to infinity) in Sprague-Dawley rat at 2.5 mg/kg, iv; assay type: ADME, organism-based; design: dose 2.5 mg/kg, time infinity, route intravenous; details: in vivo
# [16] = AUC (0 to infinity) in Sprague-Dawley rat at 5 mg/kg, po; assay type: ADME, organism-based; design: dose 5 mg/kg, time infinity, route oral; details: in vivo
# [17] = MRT (0 to t) in Sprague-Dawley rat at 5 mg/kg, po; assay type: ADME, organism-based; details: in vivo
# [18] = Oral bioavailability in Sprague-Dawley rat at 5 mg/kg; assay type: ADME, organism-based; details: in vivo
# [19] = Solubility in pH 7.3 solution by HPLC analysis; assay type: physicochemical
# [20] = Solubility in pH 6 solution by HPLC analysis; assay type: physicochemical
# [21] = Unbound fraction in human plasma; assay type: ADME, cell-free
# Cytochrome P450 2D6 = Cytochrome P450 2D6 (Homo sapiens, UniProt P10635); assay: Inhibition of human CYP2D6; assay type: ADME
# Cytochrome P450 3A4 [22] = biological target: T1, Cytochrome P450 3A4 (Homo sapiens, UniProt P08684); assay: Inhibition of human CYP3A4 using testosterone as substrate; assay type: ADME
# Cytochrome P450 3A4 [23] = biological target: T1, Cytochrome P450 3A4; assay: Inhibition of human CYP3A4 using midazolam as substrate; assay type: ADME
# Cytochrome P450 2C9 = Cytochrome P450 2C9 (Homo sapiens, UniProt P11712); assay: Inhibition of human CYP2C9; assay type: ADME
# [24] = biological target: Voltage-gated inwardly rectifying potassium channel KCNH2 (Homo sapiens, UniProt Q12809); assay: Inhibition of human ERG
# [25] = Acute toxicity in mouse; assay type: organism-based; details: in vivo
# Rattus norvegicus [26] = assay: Anti-pulmonary fibrosis activity in Sprague-Dawley rat model of BLM-induced idiopathic pulmonary fibrosis assessed as reduction in end-inspiratory pause at 10 mg/kg, po dosed daily for 28 days by mka noninvasive pulmonary monitoring system based method; assay type: functional, organism-based
# Rattus norvegicus [27] = assay: Anti-pulmonary fibrosis activity in Sprague-Dawley rat model of BLM-induced idiopathic pulmonary fibrosis assessed as reduction in end-expiratory pause at 10 mg/kg, po dosed daily for 28 days by mka noninvasive pulmonary monitoring system based method; assay type: functional, organism-based
# Rattus norvegicus [28] = assay: Anti-pulmonary fibrosis activity in Sprague-Dawley rat model of BLM-induced idiopathic pulmonary fibrosis assessed as reduction in mid-expiratory flow at 10 mg/kg, po dosed daily for 28 days by mka noninvasive pulmonary monitoring system based method; assay type: functional, organism-based
# Rattus norvegicus [29] = assay: Anti-pulmonary fibrosis activity in Sprague-Dawley rat model of BLM-induced idiopathic pulmonary fibrosis assessed as reduction in peak expiratory flow at 10 mg/kg, po dosed daily for 28 days by mka noninvasive pulmonary monitoring system based method; assay type: functional, organism-based
# Rattus norvegicus [30] = assay: Anti-pulmonary fibrosis activity in Sprague-Dawley rat model of BLM-induced idiopathic pulmonary fibrosis assessed as reduction in enhanced pause at 10 mg/kg, po dosed daily for 28 days by mka noninvasive pulmonary monitoring system based method; assay type: functional, organism-based
# Rattus norvegicus [31] = assay: Anti-pulmonary fibrosis activity in Sprague-Dawley rat model of BLM-induced idiopathic pulmonary fibrosis assessed as reduction in lung structural damage at 10 mg/kg, po dosed daily for 28 days by H and E staining based assay; assay type: functional, organism-based
# Rattus norvegicus [32] = assay: Anti-pulmonary fibrosis activity in Sprague-Dawley rat model of BLM-induced idiopathic pulmonary fibrosis assessed as inhibition of alpha-SMA protein expression at 10 mg/kg, po dosed daily for 28 days by Western blot analysis; assay type: functional, organism-based
# Rattus norvegicus [33] = assay: Anti-pulmonary fibrosis activity in Sprague-Dawley rat model of BLM-induced idiopathic pulmonary fibrosis assessed as inhibition of alpha-SMA protein expression at 10 mg/kg, po dosed daily for 28 days by immunofluorescence staining analysis; assay type: functional, organism-based
# Homo sapiens [34] = species: Homo sapiens; assay: Anti-pulmonary fibrosis activity in human HLF assessed as reduction in TGF-beta-induced myofibroblast differentiation by measuring reduction in alpha-SMA protein expression incubated for 48 hrs by Western blot analysis; assay type: functional
# Homo sapiens [35] = species: Homo sapiens; assay: Anti-pulmonary fibrosis activity in human HLF assessed as reduction in TGF-beta-induced myofibroblast differentiation by measuring reduction in alpha-SMA protein expression incubated for 48 hrs by immunofluorescence staining analysis; assay type: functional
# T1 sequence (P08684 whole entry): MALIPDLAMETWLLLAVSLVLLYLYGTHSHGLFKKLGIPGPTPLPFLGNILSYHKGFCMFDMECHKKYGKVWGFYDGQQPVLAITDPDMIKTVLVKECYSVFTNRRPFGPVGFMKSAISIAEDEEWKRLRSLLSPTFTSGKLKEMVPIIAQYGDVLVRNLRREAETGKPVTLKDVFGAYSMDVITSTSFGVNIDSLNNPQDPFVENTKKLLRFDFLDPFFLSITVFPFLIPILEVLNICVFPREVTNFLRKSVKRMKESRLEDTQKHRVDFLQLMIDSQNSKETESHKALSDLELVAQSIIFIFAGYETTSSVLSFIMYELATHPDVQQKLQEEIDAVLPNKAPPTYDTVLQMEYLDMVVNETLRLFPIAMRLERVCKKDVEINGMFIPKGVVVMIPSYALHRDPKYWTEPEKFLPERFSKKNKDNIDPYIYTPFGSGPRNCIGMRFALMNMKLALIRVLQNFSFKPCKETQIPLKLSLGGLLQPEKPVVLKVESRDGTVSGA
# cGMP-inhibited 3',5'-cyclic phosphodiesterase 3A, sequence (Q14432 whole entry, the tested form may be a part): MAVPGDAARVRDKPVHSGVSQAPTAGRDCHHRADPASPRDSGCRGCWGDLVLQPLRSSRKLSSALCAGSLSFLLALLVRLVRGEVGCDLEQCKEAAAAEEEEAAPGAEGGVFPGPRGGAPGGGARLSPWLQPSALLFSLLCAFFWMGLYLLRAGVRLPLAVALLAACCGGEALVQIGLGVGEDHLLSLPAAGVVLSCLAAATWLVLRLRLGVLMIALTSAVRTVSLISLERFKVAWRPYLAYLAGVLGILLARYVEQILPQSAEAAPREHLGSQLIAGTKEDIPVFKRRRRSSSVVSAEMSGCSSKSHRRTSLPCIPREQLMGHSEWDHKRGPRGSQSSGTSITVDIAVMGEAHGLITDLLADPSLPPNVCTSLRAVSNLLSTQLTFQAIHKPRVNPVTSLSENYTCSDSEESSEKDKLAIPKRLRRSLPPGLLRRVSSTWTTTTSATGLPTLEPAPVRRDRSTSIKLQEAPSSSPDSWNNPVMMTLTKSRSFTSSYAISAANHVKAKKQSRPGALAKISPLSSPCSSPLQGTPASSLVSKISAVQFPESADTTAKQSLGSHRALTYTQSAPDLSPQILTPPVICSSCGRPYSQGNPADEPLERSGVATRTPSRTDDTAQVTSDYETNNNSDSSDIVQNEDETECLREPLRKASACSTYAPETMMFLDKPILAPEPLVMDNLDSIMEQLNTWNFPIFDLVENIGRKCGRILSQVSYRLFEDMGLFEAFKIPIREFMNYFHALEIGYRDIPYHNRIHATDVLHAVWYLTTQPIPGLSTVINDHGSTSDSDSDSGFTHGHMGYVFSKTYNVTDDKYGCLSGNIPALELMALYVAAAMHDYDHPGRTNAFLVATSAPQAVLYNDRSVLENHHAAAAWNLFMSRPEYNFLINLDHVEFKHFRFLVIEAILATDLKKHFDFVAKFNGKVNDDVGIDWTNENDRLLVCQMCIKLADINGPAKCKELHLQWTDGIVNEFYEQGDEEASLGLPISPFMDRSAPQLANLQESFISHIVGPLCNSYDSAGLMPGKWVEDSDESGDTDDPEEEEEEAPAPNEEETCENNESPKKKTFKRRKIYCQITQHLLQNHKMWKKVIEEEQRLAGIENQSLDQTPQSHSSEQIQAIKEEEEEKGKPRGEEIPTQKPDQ
# Voltage-gated inwardly rectifying potassium channel KCNH2, sequence (Q12809 whole entry): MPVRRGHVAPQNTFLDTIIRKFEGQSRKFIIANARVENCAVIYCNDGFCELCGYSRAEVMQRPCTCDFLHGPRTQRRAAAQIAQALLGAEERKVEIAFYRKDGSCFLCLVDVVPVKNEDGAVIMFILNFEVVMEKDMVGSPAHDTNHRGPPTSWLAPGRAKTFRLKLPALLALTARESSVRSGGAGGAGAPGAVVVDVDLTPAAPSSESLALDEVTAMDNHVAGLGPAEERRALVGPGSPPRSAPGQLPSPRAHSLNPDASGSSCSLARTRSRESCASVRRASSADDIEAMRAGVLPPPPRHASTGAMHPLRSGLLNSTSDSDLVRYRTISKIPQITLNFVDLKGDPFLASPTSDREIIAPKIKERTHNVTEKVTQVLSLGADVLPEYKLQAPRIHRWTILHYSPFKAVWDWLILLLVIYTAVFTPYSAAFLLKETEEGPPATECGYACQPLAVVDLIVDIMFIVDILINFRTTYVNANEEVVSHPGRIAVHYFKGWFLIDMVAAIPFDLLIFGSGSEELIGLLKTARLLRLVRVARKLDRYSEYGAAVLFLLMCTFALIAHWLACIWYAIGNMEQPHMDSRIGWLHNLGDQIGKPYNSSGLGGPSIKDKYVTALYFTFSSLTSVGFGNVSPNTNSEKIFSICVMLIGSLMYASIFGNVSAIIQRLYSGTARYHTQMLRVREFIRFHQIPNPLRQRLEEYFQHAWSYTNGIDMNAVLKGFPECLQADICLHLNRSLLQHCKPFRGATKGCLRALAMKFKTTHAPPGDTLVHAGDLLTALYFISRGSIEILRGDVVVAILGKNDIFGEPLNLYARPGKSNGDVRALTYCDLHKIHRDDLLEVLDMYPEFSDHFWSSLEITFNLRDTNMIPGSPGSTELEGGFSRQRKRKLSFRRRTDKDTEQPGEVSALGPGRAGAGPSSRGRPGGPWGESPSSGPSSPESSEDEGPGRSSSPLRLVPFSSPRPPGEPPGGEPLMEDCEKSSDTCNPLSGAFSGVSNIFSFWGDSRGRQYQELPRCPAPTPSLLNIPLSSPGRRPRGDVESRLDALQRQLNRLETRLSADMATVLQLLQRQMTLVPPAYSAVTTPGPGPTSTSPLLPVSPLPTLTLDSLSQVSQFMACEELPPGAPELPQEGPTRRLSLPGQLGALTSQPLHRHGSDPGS
# Cytochrome P450 2C9, sequence (P11712 whole entry): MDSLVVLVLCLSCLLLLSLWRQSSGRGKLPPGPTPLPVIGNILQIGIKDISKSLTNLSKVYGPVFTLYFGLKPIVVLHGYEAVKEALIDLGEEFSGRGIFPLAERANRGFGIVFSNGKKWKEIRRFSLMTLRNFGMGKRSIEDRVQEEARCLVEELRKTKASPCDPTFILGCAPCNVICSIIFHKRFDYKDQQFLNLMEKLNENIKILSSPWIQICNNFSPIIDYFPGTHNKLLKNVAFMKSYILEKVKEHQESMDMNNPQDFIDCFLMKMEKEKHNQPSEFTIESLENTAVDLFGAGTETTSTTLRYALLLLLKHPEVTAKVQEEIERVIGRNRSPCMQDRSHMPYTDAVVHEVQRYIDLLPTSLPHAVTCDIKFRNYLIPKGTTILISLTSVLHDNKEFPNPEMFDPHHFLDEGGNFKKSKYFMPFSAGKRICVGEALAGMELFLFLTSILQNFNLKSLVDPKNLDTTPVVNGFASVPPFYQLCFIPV
# High affinity cAMP-specific and IBMX-insensitive 3',5'-cyclic phosphodiesterase 8A, sequence (O60658 whole entry, the tested form may be a part): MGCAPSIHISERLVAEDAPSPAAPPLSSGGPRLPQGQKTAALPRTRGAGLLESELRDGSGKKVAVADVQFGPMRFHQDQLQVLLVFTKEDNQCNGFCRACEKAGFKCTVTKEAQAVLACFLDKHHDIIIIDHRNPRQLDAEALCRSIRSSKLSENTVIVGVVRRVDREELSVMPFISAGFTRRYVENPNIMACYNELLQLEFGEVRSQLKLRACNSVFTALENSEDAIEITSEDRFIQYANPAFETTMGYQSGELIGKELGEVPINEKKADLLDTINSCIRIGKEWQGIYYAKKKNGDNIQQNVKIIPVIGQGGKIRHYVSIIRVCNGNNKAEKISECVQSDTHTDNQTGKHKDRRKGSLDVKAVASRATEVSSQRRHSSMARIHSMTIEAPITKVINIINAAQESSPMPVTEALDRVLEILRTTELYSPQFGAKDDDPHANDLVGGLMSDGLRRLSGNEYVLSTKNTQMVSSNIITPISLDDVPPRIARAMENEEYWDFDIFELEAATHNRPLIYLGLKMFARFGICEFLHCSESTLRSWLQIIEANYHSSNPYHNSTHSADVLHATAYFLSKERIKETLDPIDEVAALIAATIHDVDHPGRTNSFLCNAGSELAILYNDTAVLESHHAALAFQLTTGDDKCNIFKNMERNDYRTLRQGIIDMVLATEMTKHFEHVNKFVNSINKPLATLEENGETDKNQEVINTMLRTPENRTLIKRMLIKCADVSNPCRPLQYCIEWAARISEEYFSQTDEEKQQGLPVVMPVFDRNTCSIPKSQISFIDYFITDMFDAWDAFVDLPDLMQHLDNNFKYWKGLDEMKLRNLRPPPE
# Cone cGMP-specific 3',5'-cyclic phosphodiesterase subunit alpha', sequence (P51160 whole entry, the tested form may be a part): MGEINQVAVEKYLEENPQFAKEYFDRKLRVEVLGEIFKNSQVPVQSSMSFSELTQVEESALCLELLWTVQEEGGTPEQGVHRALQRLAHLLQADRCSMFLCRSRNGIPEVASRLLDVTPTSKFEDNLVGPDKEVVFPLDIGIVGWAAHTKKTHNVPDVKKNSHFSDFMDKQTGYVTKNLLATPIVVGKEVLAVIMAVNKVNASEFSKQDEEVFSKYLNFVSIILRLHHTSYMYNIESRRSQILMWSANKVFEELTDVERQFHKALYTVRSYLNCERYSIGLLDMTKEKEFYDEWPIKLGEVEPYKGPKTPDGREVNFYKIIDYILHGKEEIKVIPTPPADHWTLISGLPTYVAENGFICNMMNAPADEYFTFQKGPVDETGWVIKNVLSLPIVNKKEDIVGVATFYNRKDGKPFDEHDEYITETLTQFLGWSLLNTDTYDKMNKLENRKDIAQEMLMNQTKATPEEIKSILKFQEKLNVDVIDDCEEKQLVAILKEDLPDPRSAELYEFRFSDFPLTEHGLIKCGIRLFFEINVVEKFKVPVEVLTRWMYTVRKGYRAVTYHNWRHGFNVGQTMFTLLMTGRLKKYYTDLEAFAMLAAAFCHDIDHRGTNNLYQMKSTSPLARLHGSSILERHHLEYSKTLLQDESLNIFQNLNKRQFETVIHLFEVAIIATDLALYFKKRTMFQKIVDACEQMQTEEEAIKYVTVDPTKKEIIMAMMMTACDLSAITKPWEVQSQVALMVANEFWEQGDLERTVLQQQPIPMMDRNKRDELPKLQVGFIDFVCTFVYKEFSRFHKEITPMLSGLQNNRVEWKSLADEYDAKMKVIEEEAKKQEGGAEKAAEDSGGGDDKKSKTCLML
compound,measurement,setting,value
C[C@@H](Nc1nc2c(cnn2C(C)(C)C)c(=O)n1Cc1ccc(F)cc1)c1ccc(Cl)cc1,half-life,[1],0.263 to 0.267 h
same,IC50,[2],> 10 µM
same,IC50,[3],> 10 µM
same,IC50,[4],0.37 µM
same,IC50,[5],> 10 µM
same,IC50,[6],> 10 µM
same,IC50,[7],2.02 µM
same,IC50,[8],> 10 µM
same,IC50,[9],1.77 µM
same,half-life,[10],5.5 h
same,half-life,[11],3.7 h
same,Tmax,[12],4 h
same,AUC(0-t),[13],1930 ng·h/mL
same,AUC(0-t),[14],1300 ng·h/mL
same,AUC(0-inf),[15],2100 ng·h/mL
same,AUC(0-inf),[16],1320 ng·h/mL
same,MRT last,[17],6.88 h
same,bioavailability,[18],34%
same,solubility,[19],22 µg/mL
same,solubility,[20],16 µg/mL
same,Fu,[21],0.1%
same,IC50,Cytochrome P450 2D6,> 25 µM
same,IC50,Cytochrome P450 3A4 [22],> 25 µM
same,IC50,Cytochrome P450 3A4 [23],> 25 µM
same,IC50,Cytochrome P450 2C9,6.6 µM
same,IC50,[24],11 µM
same,MTD,[25],> 1500 mg/kg
same,Activity,Rattus norvegicus [26],Active
same,Activity,Rattus norvegicus [27],Active
same,Activity,Rattus norvegicus [28],Active
same,Activity,Rattus norvegicus [29],Active
same,Activity,Rattus norvegicus [30],Active
same,Activity,Rattus norvegicus [31],Active
same,Activity,Rattus norvegicus [32],Active
same,Activity,Rattus norvegicus [33],Active
same,Activity,Homo sapiens [34],Dose-dependent effect
same,Activity,Homo sapiens [35],Dose-dependent effect
